Legend:
Test in all cases: isoTOP-ABPP mapping of AEA-DA-modified peptides in Neuro2a cells
Format in all cases: cell-based
[1] = biological target: T1, AEA-DA-modified peptides in Neuro2a cells (Mus musculus, UniProt P84084); conditions: AEA-DA-modified peptide ARF5 P84084 39-60, SEQ ID NO 14; probe 100 μM, 12 replicates
T1 construct: endogenous in cells; host or cells: Neuro2a

[2] = biological target: T2, AEA-DA-modified peptides in Neuro2a cells (Mus musculus, UniProt Q99JY4); conditions: AEA-DA-modified peptide TRABD Q99JY4 234-253, SEQ ID NO 116; probe 100 μM, 12 replicates
T2 construct: endogenous in cells; host or cells: Neuro2a
T2 sequence (Q99JY4 whole entry): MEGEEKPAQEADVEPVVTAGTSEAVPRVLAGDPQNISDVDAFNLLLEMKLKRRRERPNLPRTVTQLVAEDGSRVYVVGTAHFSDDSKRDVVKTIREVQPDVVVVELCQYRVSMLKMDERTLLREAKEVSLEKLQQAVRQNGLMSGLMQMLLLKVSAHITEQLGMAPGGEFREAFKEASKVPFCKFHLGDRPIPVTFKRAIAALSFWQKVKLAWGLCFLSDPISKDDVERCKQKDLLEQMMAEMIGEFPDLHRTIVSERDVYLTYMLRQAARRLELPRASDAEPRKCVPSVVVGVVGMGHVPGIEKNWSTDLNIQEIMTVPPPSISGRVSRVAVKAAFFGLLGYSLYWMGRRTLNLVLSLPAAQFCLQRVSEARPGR

[3] = biological target: T3, AEA-DA-modified peptides in Neuro2a cells (Mus musculus, UniProt P59325); conditions: AEA-DA-modified peptide EIF5 P59325 272-287, SEQ ID NO 36; probe 100 μM, 12 replicates
T3 construct: endogenous in cells; host or cells: Neuro2a
T3 sequence (P59325 whole entry): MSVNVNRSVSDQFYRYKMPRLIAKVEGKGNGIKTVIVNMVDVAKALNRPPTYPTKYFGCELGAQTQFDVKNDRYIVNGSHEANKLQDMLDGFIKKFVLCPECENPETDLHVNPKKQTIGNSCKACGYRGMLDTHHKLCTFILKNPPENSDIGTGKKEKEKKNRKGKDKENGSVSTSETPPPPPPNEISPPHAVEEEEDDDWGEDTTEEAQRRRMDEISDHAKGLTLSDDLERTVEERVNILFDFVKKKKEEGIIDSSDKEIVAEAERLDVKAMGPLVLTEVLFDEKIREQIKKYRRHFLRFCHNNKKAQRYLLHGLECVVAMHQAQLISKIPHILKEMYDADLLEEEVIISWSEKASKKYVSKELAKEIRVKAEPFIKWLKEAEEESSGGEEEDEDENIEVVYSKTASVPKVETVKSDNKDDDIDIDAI

[4] = biological target: T4, AEA-DA-modified peptides in Neuro2a cells (Mus musculus, UniProt P67778); conditions: AEA-DA-modified peptide PHB P67778 5-12, SEQ ID NO 85; probe 100 μM, 12 replicates
T4 construct: endogenous in cells; host or cells: Neuro2a
T4 sequence (P67778 whole entry): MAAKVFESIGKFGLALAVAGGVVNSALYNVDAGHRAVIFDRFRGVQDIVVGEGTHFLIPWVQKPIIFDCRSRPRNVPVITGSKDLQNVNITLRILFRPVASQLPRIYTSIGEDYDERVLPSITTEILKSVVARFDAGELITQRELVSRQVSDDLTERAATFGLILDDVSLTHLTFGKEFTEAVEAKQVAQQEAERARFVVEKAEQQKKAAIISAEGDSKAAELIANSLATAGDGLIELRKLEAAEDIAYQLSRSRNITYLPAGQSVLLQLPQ

[5] = biological target: T5, AEA-DA-modified peptides in Neuro2a cells (Mus musculus, UniProt Q99M71); conditions: AEA-DA-modified peptide EPDR1 Q99M71 171-182, SEQ ID NO 38; probe 100 μM, 12 replicates
T5 construct: endogenous in cells; host or cells: Neuro2a
T5 sequence (Q99M71 38-224): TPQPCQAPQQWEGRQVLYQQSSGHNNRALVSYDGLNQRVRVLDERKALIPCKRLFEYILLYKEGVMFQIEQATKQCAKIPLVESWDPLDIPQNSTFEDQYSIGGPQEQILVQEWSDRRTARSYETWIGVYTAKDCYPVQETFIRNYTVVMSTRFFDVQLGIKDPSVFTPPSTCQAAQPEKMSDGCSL

[6] = biological target: T6, AEA-DA-modified peptides in Neuro2a cells (Mus musculus, UniProt Q9D2R6); conditions: AEA-DA-modified peptide CCDC56 Q9D2R6 84-94, SEQ ID NO 22; probe 100 μM, 12 replicates
T6 construct: endogenous in cells; host or cells: Neuro2a
T6 sequence (Q9D2R6 whole entry): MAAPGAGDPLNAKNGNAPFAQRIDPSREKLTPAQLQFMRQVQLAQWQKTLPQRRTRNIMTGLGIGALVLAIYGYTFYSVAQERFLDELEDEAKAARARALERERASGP

[7] = biological target: T7, AEA-DA-modified peptides in Neuro2a cells (Mus musculus, UniProt Q60864); conditions: AEA-DA-modified peptide STIP1 Q60864 506-514, SEQ ID NO 106; probe 100 μM, 12 replicates
T7 construct: endogenous in cells; host or cells: Neuro2a

[8] = biological target: T8, AEA-DA-modified peptides in Neuro2a cells (Mus musculus, UniProt O35459); conditions: probe 100 μM, 12 replicates
T8 construct: endogenous in cells; host or cells: Neuro2a
T8 sequence (O35459 34-327): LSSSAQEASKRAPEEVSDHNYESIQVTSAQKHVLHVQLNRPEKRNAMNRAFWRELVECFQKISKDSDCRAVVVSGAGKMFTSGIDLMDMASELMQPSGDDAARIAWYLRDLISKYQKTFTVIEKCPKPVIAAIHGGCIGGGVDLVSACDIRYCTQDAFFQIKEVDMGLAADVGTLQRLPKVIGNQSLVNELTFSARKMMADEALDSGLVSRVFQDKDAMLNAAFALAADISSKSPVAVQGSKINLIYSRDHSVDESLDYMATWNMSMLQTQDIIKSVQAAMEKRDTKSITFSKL

[9] = biological target: T9, AEA-DA-modified peptides in Neuro2a cells (Mus musculus, UniProt P70333); conditions: AEA-DA-modified peptide HNRNPH 2 P70333 50-69, SEQ ID NO 50; probe 100 μM, 12 replicates
T9 construct: endogenous in cells; host or cells: Neuro2a
T9 sequence (P70333 whole entry): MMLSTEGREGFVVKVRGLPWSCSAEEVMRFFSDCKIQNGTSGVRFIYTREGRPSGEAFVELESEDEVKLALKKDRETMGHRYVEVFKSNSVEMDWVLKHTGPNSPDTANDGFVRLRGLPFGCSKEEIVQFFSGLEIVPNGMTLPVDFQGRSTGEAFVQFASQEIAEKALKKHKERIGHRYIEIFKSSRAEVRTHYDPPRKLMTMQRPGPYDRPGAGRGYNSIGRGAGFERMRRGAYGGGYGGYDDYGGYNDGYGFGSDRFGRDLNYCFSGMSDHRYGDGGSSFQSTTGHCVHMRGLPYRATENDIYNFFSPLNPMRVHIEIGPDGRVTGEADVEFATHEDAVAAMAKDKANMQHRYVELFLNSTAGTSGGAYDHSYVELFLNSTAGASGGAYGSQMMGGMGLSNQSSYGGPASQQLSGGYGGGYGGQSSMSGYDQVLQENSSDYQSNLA

[10] = biological target: T10, AEA-DA-modified peptides in Neuro2a cells (Mus musculus, UniProt Q9DCZ4); conditions: AEA-DA-modified peptide APOO Q9DCZ4 187-197, SEQ ID NO 9; probe 100 μM, 12 replicates
T10 construct: endogenous in cells; host or cells: Neuro2a
T10 sequence (Q9DCZ4 24-198): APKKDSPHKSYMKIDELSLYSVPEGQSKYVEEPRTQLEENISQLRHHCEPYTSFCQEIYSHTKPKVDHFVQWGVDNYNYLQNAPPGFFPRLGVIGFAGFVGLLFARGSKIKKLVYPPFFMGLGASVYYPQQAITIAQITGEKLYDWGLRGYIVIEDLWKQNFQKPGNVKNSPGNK

[11] = biological target: T11, AEA-DA-modified peptides in Neuro2a cells (Mus musculus, UniProt Q8R0X7); conditions: probe 100 μM, 12 replicates
T11 construct: endogenous in cells; host or cells: Neuro2a
T11 sequence (Q8R0X7 whole entry): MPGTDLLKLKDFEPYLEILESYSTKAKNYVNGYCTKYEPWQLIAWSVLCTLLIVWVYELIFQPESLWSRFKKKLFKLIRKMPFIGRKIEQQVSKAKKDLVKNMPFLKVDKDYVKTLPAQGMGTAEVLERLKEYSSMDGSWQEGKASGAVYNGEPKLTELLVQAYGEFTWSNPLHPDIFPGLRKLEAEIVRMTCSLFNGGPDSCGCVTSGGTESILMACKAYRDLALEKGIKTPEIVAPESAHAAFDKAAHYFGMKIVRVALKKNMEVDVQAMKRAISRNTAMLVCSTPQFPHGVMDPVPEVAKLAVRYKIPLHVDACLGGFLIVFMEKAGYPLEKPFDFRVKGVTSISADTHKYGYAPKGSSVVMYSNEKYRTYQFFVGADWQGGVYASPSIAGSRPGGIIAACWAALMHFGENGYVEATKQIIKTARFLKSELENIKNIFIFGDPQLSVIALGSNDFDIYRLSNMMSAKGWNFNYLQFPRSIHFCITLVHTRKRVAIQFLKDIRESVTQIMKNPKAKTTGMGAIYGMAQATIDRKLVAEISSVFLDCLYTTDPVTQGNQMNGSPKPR

T1 sequence (P84084 whole entry): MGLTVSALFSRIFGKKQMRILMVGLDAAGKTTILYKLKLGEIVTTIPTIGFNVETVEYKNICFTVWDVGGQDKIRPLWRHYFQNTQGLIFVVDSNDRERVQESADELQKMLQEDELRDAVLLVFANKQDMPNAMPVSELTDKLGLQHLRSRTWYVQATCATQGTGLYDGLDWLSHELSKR

C#CCCCC1(CC/C=C\C/C=C\C/C=C\CCCC(=O)NCCO)N=N1 [AEA-DA, (5Z,8Z,11Z)-N-(2-hydroxyethyl)-14-(3-(pent-4-yn-1-yl)-3H-diazirin-3-yl)tetradeca-5,8,11-trienamide]
Times observed [1]: 9 | Times observed [2]: 4 | Times observed [3]: 12 | Times observed [4]: 2 | Times observed [5]: 3 | Times observed [6]: 2 | Times observed [7]: 3 | Times observed ([8]; AEA-DA-modified peptide ECH1 O35459 185-211, SEQ ID NO 32): 4 | Times observed ([8]; AEA-DA-modified peptide ECH1 O35459 196-211, SEQ ID NO 33): 8 | Times observed [9]: 9 | Times observed [10]: 2 | Times observed ([11]; AEA-DA-modified peptide SGPL1 Q8R0X7 9-26, SEQ ID NO 100): 4 | Times observed ([11]; AEA-DA-modified peptide SGPL1 Q8R0X7 519-536, SEQ ID NO 99): 12

Source: patent US10168342B2, “Lipid probes and uses thereof” (THE SCRIPPS RESEARCH INSTITUTE, priority 2015, dated 2019)
